Where two headings read alike, the source gives them in different places. Marks after values point to notes of the source that are not given here.
Tests used:
[1] = system: superficial bladder cancer (SBC); conditions: mitomycin dissolved in only a sodium chloride solution, intrabladder perfusion and lavage; cited from earlier work
[2] = system: human lung cancer A549 cells; assay: Cell invasion assayed by Transwell; format: cell-based; conditions: invaded A549 cells, control 178.3 ± 13.8
Method: Cell lines: human colon cancer HCT-116 cells and human lung cancer A549 cells were provided by NANJING […] BIOTECH. CO., LTD. […] The cell suspension was centrifuged at 800 to 1,000 rpm for 5 min, and the supernatant was discarded; 1.4. A complete culture medium was added to the cell pellet which was well mixed by gentle pipetting, the cell suspension was transferred to a culture flask, and the cells were cultured by supplementing culture medium. 1. […] After incubation of cells with the test drugs for 24 hours, serum was removed, and the cells were incubated under starvation with an incomplete culture medium for 24 hours; 3. Matrigel was placed at 4° C. in advance to thaw overnight; 4. Thawed Matrigel was 1:1 diluted with the incomplete culture medium, 30 μl diluted Matrigel was added to the upper compartment of Transwell and incubated at 37° C. for 120 min to gel the Matrigel; 5. Cells from different groups were digested, counted, and then adjusted to a density of 1×10^5 cells/ml with the incomplete culture medium, 100 μl cell suspension was added to the upper compartment (small compartment) of Transwell, and 500 μl medium containing 20% FBS was added to the lower compartment of Transwell; 6. A 24-well cell culture plate was placed in an incubator at 37° C. and 5% CO2 to culture the cells for 24 hours; 7. […] The assay was repeated one more time.

[3] = system: human lung cancer A549 cells; assay: Cell cycle by PI single staining (flow cytometry); format: cell-based; conditions: GM 250 nM in NS, 72 hours
Method: Effect of deuterium oxide on the cell cycle of human lung cancer A549 cells and human colon cancer HCT-116 cells Human lung cancer A549 cells and human colon cancer HCT-116 cells were provided by NANJING […] BIOTECH. CO., LTD., and cultured in an incubator at 37° C., 5% CO2 and saturated humidity. A KGA511 Cell cycle assay kit was provided by NANJING […] BIOTECH. CO., LTD. The flow cytometer was FACS Calibur provided by Becton-Dickinson, US. […] The cell suspension was centrifuged at 800 to 1,000 rpm for 5 min, and the supernatant was discarded; 1.4. A complete culture medium was added to the cell pellet which was well mixed by gentle pipetting, the cell suspension was transferred to a culture flask, and the cells were cultured by supplementing culture medium. […] When all the cells became round, an equal volume of culture medium containing serum was added to cease the digestion; 2.4. The cells were blown by pipetting to suspend, then drawn into a 15 ml centrifugal tube, and centrifuged at 1000 rpm for 5 min; 2.5. […] 1. Cells growing in the exponential phase were digested and inoculated to a 6-well plate; on the next day, after the cells attached to the wall, cell culture media containing corresponding test drugs were added according to different groups, and a negative control group was also set; 2. […] The cells were washed with PBS once (centrifuged at 2,000 rpm for 5 min), and 5×10^5 cells were collected; 4. […] In a detection apparatus, red fluorescence with an excitation wavelength of 488 nm was recorded.

[4] = system: xenograft tumors from human breast cancer MCF-7 cells; assay: MCF-7 xenograft in nude mice, intravenous deuterium oxide in combination with gemcitabine; format: in vivo, BALB/c nude mice; conditions: for Body weight (g) End, given as change / Body weight (g) Initial / Bone marrow DNA content (OD): mouse, in vivo; for Inhibition (%): tumor weight
Method: Ltd. Cell lines: human breast cancer MCF-7 cells were provided by NANJING […] BIOTECH. CO., LTD. […] Bone marrow nucleated cells were isolated by a routine method, DNA was extracted from the cells, the OD value was measured in a UV-260 spectrometer as a representative of the DNA content, and inhibition of DNA synthesis by the test samples was observed. The test used 7 groups in total, with 8 animals per group. […] Statistics: the same as Example 21.

[5] = system: human pancreatic cancer PANC-1 cells inoculated into the peritoneal cavity; assay: Survival of nude mice bearing PANC-1 cells, 42° C. intraperitoneal retention lavage with HP-β-CD or sodium chloride deuterium oxide solution and gemcitabine; format: in vivo; conditions: 42° C. NS 10 ml/kg + gemcitabine 20 mg/kg, i.p. lavage x 5
Method: Effect of 42° C. hyperthermicintraperitoneal retention lavage with hydroxypropyl-β-cyclodextrin (HP-β-CD) deuterium oxide solution in combination with gemcitabine (GEM) on the survival of nude mice bearing human pancreatic cancer PANC-1 cell.
Animal: 4 to 5 week-aged male nude mice, provided by Shanghai SIPPR-BK Laboratory Animal Co. Ltd.
Cell lines: human pancreatic cancer PANC-1 cell line was provided by NANJING KEYGEN BIOTECH.
Modeling: 0.2 ml suspension of pancreatic cancer PANC-1 cells containing 1×10^7 cells/ml (2×10^6 cells in total) was inoculated into the peritoneal cavity of the nude mice.
Grouping and dosing: the mouse model was established 7 to 8 days after inoculation into the nude mice, and the mice were randomized with 18 animals/group.
Gemcitabine was separately dissolved in the HP-β-CD deuterium oxide solution at 42° C., and in the sodium chloride deuterium oxide solution at 42° C., for intraperitoneal lavage of tumor-bearing mice.
Blank control group (42° C. sodium chloride physiological solution, 10 ml/kg); 2). Normal chemo group (42° C. sodium chloride physiological solution, 10 ml/kg+gemcitabine 20 mg/kg); 3). Low-dose sodium chloride deuterium oxide solution+gemcitabine group (42° C. sodium chloride deuterium oxide solution, 5 ml/kg+gemcitabine 20 mg/kg); 4). […]

[6] = system: xenograft tumors from human lung cancer A549 cells; conditions: mouse, in vivo
Method: (§1) Animal: 6 to 7 week-aged female BALB/c nude mice, each weighing 18 to 20 g, provided by Shanghai SLAC Laboratory Animal Co. Ltd.
(§2) Test drugs: gemcitabine (GEM) and the sodium chloride deuterium oxide solution prepared in Example 1.
(§3) Tumor cells were resuscitated and inoculated, and sterile sodium chloride physiological solution was added thereto to make a cell suspension which was subcutaneously inoculated into the upper right axillary fossa of animals. 5×10^6 tumor cells were inoculated into each animal.
(§4) The diameter of xenograft tumors in the nude mice was measured with a vernier caliper, and 10 days after inoculation, when tumors grew to 100 to 110 cm^3, the animals were randomized with 8 mice per group. Meanwhile drugs were administered by injection into tail vein, once every three days, for 21 successive days. By measuring the tumor diameter, the anti-tumor efficacy of test samples was dynamically observed. Meanwhile the body weight of animals was also recorded to observe the toxicity of the test samples. 21 days after administration, the nude mice were sacrificed, and tumors were harvested by surgery, weighed and photographed.
(§5) 6) Test group 2: gemcitabine (10 mg/kg) diluted in the sodium chloride deuterium oxide solution (10 ml/kg). 7) Test group 3: gemcitabine (10 ml/kg) diluted in the sodium chloride deuterium oxide solution (20 ml/kg).

[7] = system: xenograft tumors from human lung cancer A549 cells; assay: A549 xenograft in nude mice, intravenous deuterium oxide in combination with gemcitabine; conditions: for Inhibition (%): tumor weight
Method: as §1, §2, §3, §4, §5

[8] = GEM(H) 20 mg/kg × 11, tail vein
[9] = GEM(L) 10 mg/kg × 11, tail vein, 10 mg/kg
[10] = GEM(L) 10 mg/kg × 11, tail vein, listed as gemcitabine, 10 mg/kg
[11] = GEM(H) 20 mg/kg × 11, tail vein, 20 mg/kg
[12] = GEM(H) 20 mg/kg × 11, tail vein, listed as gemcitabine, 20 mg/kg

For `CO[C@@]12[C@H](COC(N)=O)C3=C(C(=O)C(C)=C(N)C3=O)N1C[C@@H]1N[C@@H]12` [mitomycin], which tumor recurrence rate [1] is on record?
The tumor recurrence rate was 78%.

For `Nc1ccn([C@@H]2O[C@H](CO)[C@@H](O)C2(F)F)c(=O)n1` [Gemcitabine, gemcitabine], which Number of cells ([2]; GEM 1.95 nM) is on record?
Its Number of cells is 160.0 ± 6.6.

What about the Number of cells ([2]; GEM 3.9 nM) of the same compound?
Its Number of cells is 112.7 ± 3.5.

What about the Number of cells ([2]; GEM 7.8 nM) of the same compound?
The Number of cells was 59.0 ± 2.0.

What about the Number of cells ([2]; GEM 15.6 nM) of the same compound?
Its Number of cells is 51.7 ± 3.1.

What about the Number of cells ([2]; GEM 31.2 nM) of the same compound?
The Number of cells was 37.3 ± 2.3.

What about the Number of cells ([2]; GEM 62.5 nM) of the same compound?
The Number of cells was 22.3 ± 0.6.

And the Number of cells ([2]; GEM 125 nM)?
Its Number of cells is 16.0 ± 1.0.

What about the Number of cells ([2]; GEM 250 nM) of the same compound?
The Number of cells was 9.7 ± 2.1.

And the “G1 Phase” value [3]?
The value was 73.73 ± 3.73%.

What about the “G2 Phase” value [3] of the same compound?
Its value is 10.71 ± 2.39%.

What about the “S Phase” value [3] of the same compound?
The value was 15.55 ± 5.51%.

What about the tumor volume ([4]; 21 days after administration, gemcitabine 10 mg/kg alone) of the same compound?
The tumor volume was 2.757±0.342 cm^3.

And the “Tumor weight” value [4, 8]?
The value was 1.57 ± 0.21 g.

What about the “Tumor weight” value ([4]; GEM(L) 10 mg/kg × 11, tail vein) of the same compound?
The value was 2.48 ± 0.41 g.

And the “T/C (relative tumor growth ratio)” value ([4]; gemcitabine 10 mg/kg alone, vs negative control)?
The value was 60.39%.

What about the “Body weight (g) End, given as change” value ([4]; 10 mg/kg) of the same compound?
The value was “+2.9 g”.

What about the “Body weight (g) Initial” value ([4]; 10 mg/kg) of the same compound?
Its value is 18.0 g.

And the “Bone marrow DNA content (OD)” value ([4]; 10 mg/kg)?
The value was 0.908 ± 0.2543 OD.

And the “Body weight (g) End, given as change” value ([4]; 20 mg/kg)?
Its value is “+0.9 g”.

What about the “Body weight (g) Initial” value ([4]; 20 mg/kg) of the same compound?
Its value is 18.1 g.

And the “Bone marrow DNA content (OD)” value ([4]; 20 mg/kg)?
Its value is 0.823 ± 0.1416 OD.

And the “Inhibition (%)” value [4, 8]?
The value was 61.42%*.

What about the “Inhibition (%)” value [4, 9] of the same compound?
The value was 39.06%.

What about the “Inhibition (%)” value [4, 10] of the same compound?
The value was 39.18%.

And the “T/C(%)” value [5]?
The value was 150.8%.

And the “MST” value ([5]; control 11.8 ± 2.2)?
The value was 17.8 ± 1.8 days.

And the “Body weight (g) End, given as change” value ([6]; 10 mg/kg)?
The value was “+0.4 g”.

What about the “Body weight (g) Initial” value ([6]; 10 mg/kg) of the same compound?
Its value is 18.0 g.

And the “Body weight (g) End, given as change” value ([6]; 20 mg/kg)?
The value was “+0.5 g”.

And the “Body weight (g) Initial” value ([6]; 20 mg/kg)?
Its value is 18.4 g.

And the “Tumor weight” value [7, 11]?
Its value is 1.04 ± 0.13 g.

What about the “Tumor weight” value [7, 12] of the same compound?
Its value is 1.04 ± 0.13 g.

What about the “Tumor weight” value [7, 9] of the same compound?
Its value is 2.23 ± 0.2 g.

What about the “Tumor weight” value [7, 10] of the same compound?
The value was 2.23 ± 0.2 g.

And the “Inhibition (%)” value [7, 11]?
The value was 64.54* %.

What about the “Inhibition (%)” value [7, 12] of the same compound?
Its value is 64.54%.

What about the “Inhibition (%)” value [7, 9] of the same compound?
Its value is 23.64%.

What about the “Inhibition (%)” value [7, 10] of the same compound?
Its value is 23.6%.

— patent US20170071976A1, “PHARMACEUTICAL SOLUTION HAVING ANTI-TUMOR EFFECT-ENHANCING AND TOXICITY-REDUCING EFFECT, AND PHARMACEUTICAL COMPOSITION COMPRISING SAME” (priority 2014, published 2017)
